According to US20020169147A1, “Compositions for controlling pests” (priority 2001, published 2002):

Test system: Dermatophagoides pteronyssinus
Test: Efficacy against mites (ticking in plastic dish, rated under a stereomicroscope)
Type: in vivo
Details: 0.4 ml applied to ticking; mixed population; rated after 2 hours, 1, 3 and 7 days; sum of three experimental units after end of experiment; control isopropanol/water = 9.0
Excerpt: A mixed population of the species Dermatophagoides pteronyssinus is used.
The upper rim of a plastic dish (Ø 7 cm, height 3 cm) is provided with glue and then covered with a piece of ticking of the same diameter. A spatula-tip full from a culture dish containing mites and feed (ground Tetramin) is placed on the ticking.
The dish is then placed on an inverted Petri dish in a plastic container (33×22 cm, height 6.5 cm), containing saturated sodium chloride solution, and the container is closed with a lid.
The next day, 0.4 ml of the composition of the invention is applied to the material.
The set-up is illuminated by daylight, the temperature is 24-26° C., and the relative atmospheric humidity within the closed plastic container is approximately 75%.
After 2 hours, 1, 3, and 7 days the state of the mites in comparison with a control treated only with isopropanol/water (1:1) is rated under a stereomicroscope (3=numerous mites, 0=no mites). Direct counting is impossible since dead animals are difficult to see.
If required (control, ineffective products), more feed is added.
Three experimental units are set up for each experiment, and after the end of the experiment the sum of the scores is recorded.

Compound	sum of the scores of the state of the mites (0 = no mites, 9 = numerous mites)
Oc1ccccc1-c1ccccc1 [0.1% o-Phenylphenol, o-Phenylphenol]	9.0
CCCCCCCCCCCCOS(=O)(=O)[O-].[Na+] [1.0% Na lauryl sulphate, Na lauryl sulphate]	9.0
O=C(OCc1ccccc1)c1ccccc1 [5.0% Benzyl benzoate, Benzyl benzoate]	9.0
CC(O)CO (stereo not shown) [5.0% Propylene glycol, Propylene glycol]	9.0
